Results reported in patent US20260265246A1 (ICAHN SCHOOL OF MEDICINE AT MOUNT SINAI, priority 2021, published 2026).
pKi: −log10 of the molar value. Like-named read-outs stand apart in the source and are kept apart here.

How the values were obtained:
5HT2A receptor [1] = target: T1, 5HT2A receptor (Homo sapiens, UniProt P28223); test: biochemical; type: binding; design: expressed in transfected cells; crude membranes; conditions: for Ki: 5HT2A Ki (nM)
5HT2A receptor [2] = target: T1, 5HT2A receptor; test: cell-based; design: expressed in transfected cells; host or cells: HEK293T cells, transient co-transfection; conditions: HEK-293T, BRET2 Gαq dissociation, HEK293T cells, normalized to 5-HT; read-out: 5HT2A Gq Emax (%)
5HT2A receptor [3] = target: T1, 5HT2A receptor; test: cell-based; design: expressed in transfected cells; host or cells: HEK293T cells, transient co-transfection; conditions: HEK-293T, BRET1 beta-arrestin2 recruitment, HEK293T cells, normalized to 5-HT; read-out: 5HT2A β-Arr Emax (%)
[4] = secondary radioligand binding, Ki from IC50 by Cheng-Prusoff
[5] = secondary binding assay, Cheng-Prusoff

T1 sequence (P28223 whole entry): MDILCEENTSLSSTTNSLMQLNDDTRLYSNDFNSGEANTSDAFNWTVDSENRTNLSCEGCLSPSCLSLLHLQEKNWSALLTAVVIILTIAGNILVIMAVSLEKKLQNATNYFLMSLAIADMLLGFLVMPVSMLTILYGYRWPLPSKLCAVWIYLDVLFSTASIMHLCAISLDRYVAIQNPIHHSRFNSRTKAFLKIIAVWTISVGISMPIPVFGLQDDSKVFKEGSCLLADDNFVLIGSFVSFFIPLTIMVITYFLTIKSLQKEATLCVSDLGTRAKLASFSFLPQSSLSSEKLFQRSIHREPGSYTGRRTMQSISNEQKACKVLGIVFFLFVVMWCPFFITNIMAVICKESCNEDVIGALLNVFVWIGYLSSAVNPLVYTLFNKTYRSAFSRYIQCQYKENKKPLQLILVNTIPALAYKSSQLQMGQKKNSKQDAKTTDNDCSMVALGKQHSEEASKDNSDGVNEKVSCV

SMILES	Ki (5HT2A receptor [1]; [4]) [nM]	Ki (5HT2A receptor [1]; [5]) [nM]	other results
COc1cccc2c(C3=CCCNC3)c[nH]c12 [Example 51, 7-methoxy-3-(1,2,5,6-tetrahydropyridin-3-yl)-1H-indole]	> 10000	–	–
CN1CCN(c2n[nH]c3c(C#N)cccc23)CC1 [Example 233, 3-(4-methylpiperazin-1-yl)-1H-indazole-7-carbonitrile]	–	4830	–
CC(C)c1cccc2c(C3=CCCN(Cc4ccccc4)C3)c[nH]c12 [Example 70, 3-(1-benzyl-1,2,5,6-tetrahydropyridin-3-yl)-7-(propan-2-yl)-1H-indole]	2050	–	–
Cc1cccc2c(N3CCN(C)CC3)n[nH]c12 [Example 234, 7-methyl-3-(4-methylpiperazin-1-yl)-1H-indazole]	–	259	–
COc1ccc2[nH]nc(C3=CCCNC3)c2c1 [Example 87, 5-methoxy-3-(1,2,5,6-tetrahydropyridin-3-yl)-1H-indazole]	–	–	Emax (5HT2A receptor [2]): 84.2%; Emax (5HT2A receptor [3]): 80%
COc1cccc2c(C3=CCCNC3)n[nH]c12 [Example 92, 7-methoxy-3-(1,2,5,6-tetrahydropyridin-3-yl)-1H-indazole]	1090	–	–
CC(C)c1ccc2[nH]cc(C3=CCCN(C)C3)c2c1 [Example 24, 5-isopropyl-3-(1-methyl-1,2,5,6-tetrahydropyridin-3-yl)-1H-indole]	105	–	–
CCN(CC)C(=O)NC1C=C(c2c[nH]c3ncccc23)CNC1 (stereo not shown) [Example 49, 3-(5-(1H-pyrrolo[2,3-b]pyridin-3-yl)-1,2,3,6-tetrahydropyridin-3-yl)-1,1-diethylurea]	5580	–	–
NC1CCC=C(c2n[nH]c3c(Cl)cccc23)C1 (stereo not shown) [Example 169, 3-(7-chloro-1H-indazol-3-yl)cyclohex-3-en-1-amine]	–	> 10000	–
Fc1cccn2c(C3=CCCNC3)cnc12 [Example 111, 8-fluoro-3-(1,2,5,6-tetrahydropyridin-3-yl)imidazo[1,2-a]pyridine]	> 10000	–	–
COc1ccc2c(C3=CCCN(C)C3)c[nH]c2c1 [Example 36, 6-methoxy-3-(1-methyl-1,2,5,6-tetrahydropyridin-3-yl)-1H-indole]	8500	–	–
Cc1cccc2c(C3=CN4CCC3CC4)c[nH]c12 [Example 252, 3-(7-methyl-1H-indol-3-yl)-1-azabicyclo[2.2.2]oct-2-ene]	–	6020	–
CN1CCC=C(c2c[nH]c3c(C(C)(C)C)cccc23)C1 [Example 55, 7-(tert-butyl)-3-(1-methyl-1,2,5,6-tetrahydropyridin-3-yl)-1H-indole]	374	–	–
CN1CCC=C(c2c[nH]c3ccc(-c4ccccc4)cc23)C1 [Example 28, 3-(1-methyl-1,2,5,6-tetrahydropyridin-3-yl)-5-phenyl-1H-indole]	498	–	–
CN1CCC=C(c2c[nH]c3cc(C(C)(C)C)ccc23)C1 [Example 38, 6-(tert-butyl)-3-(1-methyl-1,2,5,6-tetrahydropyridin-3-yl)-1H-indole]	7880	–	–
Cc1cccn2c(C3=CCCNC3)cnc12 [Example 112, 8-methyl-3-(1,2,5,6-tetrahydropyridin-3-yl)imidazo[1,2-a]pyridine]	9040	–	–
N#Cc1cccc2c(C34CNCC3C4(F)F)n[nH]c12 (stereo not shown) [Example 202, 3-(6,6-difluoro-3-azabicyclo[3.1.0]hexan-1-yl)-1H-indazole-7-carbonitrile]	–	> 10000	–
Cc1cc(Br)cc2c(C3CNC3)c[nH]c12 [Example 265, 3-(azetidin-3-yl)-5-bromo-7-methyl-1H-indole]	–	217	–
CCCN1CCC=C(c2n[nH]c3c(Cl)ccc(F)c23)C1 [Example 177, 7-chloro-4-fluoro-3-(1-propyl-1,2,5,6-tetrahydropyridin-3-yl)-1H-indazole]	–	1830	–
Cc1cnc2[nH]cc(C3=CCCN(C)C3)c2c1 [Example 5, 5-methyl-3-(1-methyl-1,2,5,6-tetrahydropyridin-3-yl)-1H-pyrrolo[2,3-b]pyridine]	717	–	–
Clc1cccc2c(C3=CCCN(C4COC4)C3)n[nH]c12 [Example 178, 7-chloro-3-(1-(oxetan-3-yl)-1,2,5,6-tetrahydropyridin-3-yl)-1H-indazole]	–	> 10000	–
C1=C(c2c[nH]c3ccc(-c4ccccc4)cc23)CNCC1 [Example 27, 5-phenyl-3-(1,2,5,6-tetrahydropyridin-3-yl)-1H-indole]	1480	–	–
CCCN1CCC=C(c2c[nH]c3cnccc23)C1 [Example 143, 3-(1-propyl-1,2,5,6-tetrahydropyridin-3-yl)-1H-pyrrolo[2,3-c]pyridine]	–	9760	–
Cc1cccc2c(C34CNCC3C4(F)F)n[nH]c12 (stereo not shown) [Example 200]	–	> 10000	–
Cc1ccc2c(C3=CCCN(C)C3)c[nH]c2c1 [Example 30, 6-methyl-3-(1-methyl-1,2,5,6-tetrahydropyridin-3-yl)-1H-indole]	647	–	–
Cc1ccc2c(C3=CCCN(C)C3)n[nH]c2c1 [Example 93, 6-methyl-3-(1-methyl-1,2,5,6-tetrahydropyridin-3-yl)-1H-indazole]	2920	–	–

SMILES	Ki (5HT2A receptor [1]; [4]) [nM]	Ki (5HT2A receptor [1]; [5]) [nM]	other results
Clc1cccc2c(-c3cn[nH]c3)n[nH]c12 [Example 218, 7-chloro-3-(1H-pyrazol-4-yl)-1H-indazole]	–	1720	–
CCCNC1CCC=C(c2n[nH]c3c(Cl)cccc23)C1 (stereo not shown) [Example 171, 3-(7-chloro-1H-indazol-3-yl)-N-propylcyclohex-3-en-1-amine]	–	> 10000	–
CC(C)c1ccc2c(C3=CCCNC3)c[nH]c2c1 [Example 33, 6-isopropyl-3-(1,2,5,6-tetrahydropyridin-3-yl)-1H-indole]	1260	–	–
Clc1cccc2c(C3CN4CCC3CC4)c[nH]c12 (stereo not shown) [Example 251, 3-(7-chloro-1H-indol-3-yl)quinuclidine]	–	1100	–
C1=C(c2c[nH]c3cnccc23)CNCC1 [Example 142, 3-(1,2,5,6-tetrahydropyridin-3-yl)-1H-pyrrolo[2,3-c]pyridine]	–	–	pKi (5HT2A receptor [1]; secondary binding assay, Cheng-Prusoff, read-out: 5HT2A Ki): 6.82
Clc1cccc2c(C3=CCOCC3)n[nH]c12 [Example 220, 7-chloro-3-(3,6-dihydro-2H-pyran-4-yl)-1H-indazole]	–	> 10000	–
Clc1cccn2c(C3=CCCNC3)cnc12 [Example 110, 8-chloro-3-(1,2,5,6-tetrahydropyridin-3-yl)imidazo[1,2-a]pyridine]	> 10000	–	–
CN1CCC(c2n[nH]c3c(Cl)cccc23)CC1 [Example 240, 7-chloro-3-(1-methylpiperidin-4-yl)-1H-indazole]	–	378	–
CN1CCC(c2n[nH]c3c(Cl)cccc23)C1 (stereo not shown) [Example 222, 7-chloro-3-(1-methylpyrrolidin-3-yl)-1H-indazole]	–	6980	–
CC(C)c1ccc2c(C3=CCCN(C)C3)c[nH]c2c1 [Example 34, 6-isopropyl-3-(1-methyl-1,2,5,6-tetrahydropyridin-3-yl)-1H-indole]	486	–	–
CN1CCC=C(c2c[nH]c3c(C(=O)O)cccc23)C1 [Example 57, 3-(1-methyl-1,2,5,6-tetrahydropyridin-3-yl)-1H-indole-7-carboxylic acid]	> 10000	–	–
CC(C)N1CCOC(c2c[nH]c3c(Cl)cccc23)C1 (stereo not shown) [Example 248, 2-(7-chloro-1H-indol-3-yl)-4-isopropylmorpholine]	–	5890	–
N#Cc1cccc2c(C34CNCCC3C4(F)F)n[nH]c12 (stereo not shown) [Example 192, 3-(7,7-difluoro-3-azabicyclo[4.1.0]heptan-1-yl)-1H-indazole-7-carbonitrile]	–	> 10000	–
OCc1cccc2c(C3=CCCN(Cc4ccccc4)C3)c[nH]c12 [Example 75, (3-(1-benzyl-1,2,5,6-tetrahydropyridin-3-yl)-1H-indol-7-yl)methanol]	> 10000	–	–
Cc1ccc2c(C3=CCCNC3)c[nH]c2c1 [Example 29, 6-methyl-3-(1,2,5,6-tetrahydropyridin-3-yl)-1H-indole]	1200	–	–
CN1CCC=C(c2c[nH]c3cc(-c4ccccc4)ccc23)C1 [Example 40, 3-(1-methyl-1,2,5,6-tetrahydropyridin-3-yl)-6-phenyl-1H-indole]	1330	–	–
Cc1cccc2c(C3=CCNCCC3)n[nH]c12 [Example 204, 7-methyl-3-(2,5,6,7-tetrahydro-1H-azepin-4-yl)-1H-indazole]	–	158	–
CCCc1cccc2c(C3=CCCNC3)n[nH]c12 [Example 236]	–	294	–
COc1cccc2c(C3=CCCN(C)C3)n[nH]c12 [Example 109, 7-methoxy-3-(1-methyl-1,2,5,6-tetrahydropyridin-3-yl)-1H-indazole]	> 10000	–	–
N#Cc1cccc2c(N3CCNCC3)n[nH]c12 [Example 231, 3-(piperazin-1-yl)-1H-indazole-7-carbonitrile]	–	3010	–
CN(C)C1CCC=C(c2n[nH]c3c(Cl)cccc23)C1 (stereo not shown) [Example 170, 3-(7-chloro-1H-indazol-3-yl)-N,N-dimethylcyclohex-3-en-1-amine]	–	> 10000	–
C1=C(c2c[nH]c3cc(-c4ccccc4)ccc23)CNCC1 [Example 39, 6-phenyl-3-(1,2,5,6-tetrahydropyridin-3-yl)-1H-indole]	6760	–	–
CN1CCC2CC2(c2n[nH]c3c(Cl)cccc23)C1 (stereo not shown) [Example 197, 7-chloro-3-(3-methyl-3-azabicyclo[4.1.0]heptan-1-yl)-1H-indazole]	–	1200	–
CN1CCC=C(c2n[nH]c3cc(C#N)ccc23)C1 [Example 96, 3-(1-methyl-1,2,5,6-tetrahydropyridin-3-yl)-1H-indazole-6-carbonitrile]	5470	–	–
CN1CCC=C(c2c[nH]c3c(CO)cccc23)C1 [Example 58, (3-(1-methyl-1,2,5,6-tetrahydropyridin-3-yl)-1H-indol-7-yl)methanol]	> 10000	–	–
